From publication PMC12889028, “Discovery and biological evaluation of novel N-aryl-N′-methylbenzodrazides against Schistosoma japonicum in vitro and in vivo” (Microbiology Spectrum, 2025)
Where two headings read alike, the source gives them in different places.

Test system: adult worms of S. japonicum (Chinese strain)
Assay: microbe, parasite or virus in culture
Conditions: for mortality at 100 µM: Schistosoma japonicum; for Mortality (%) 72 h: 100 μM, adult worms in vitro
Method: S. japonicum cercariae (Chinese strain) were acquired from infected Oncomelania hupensis snails (Wuxi Insect Vector Biology Co., Ltd., China) ([28]). ICR mice (6–8 weeks, 22–25 g; Hunan SJA Laboratory Animal Co., Ltd., China) were percutaneously infected via abdominal exposure to 60 ± 5 cercariae. Adult schistosomes were perfused from the hepatic portal system at 35 dpi using a modified Duvall and DeWitt method ([29]). Animals were housed under controlled conditions (22°C ± 1°C, 12 h light/dark cycle) with ad libitum access to feed and water.
Adult S. japonicum worms isolated from ICR mice were maintained in sterile culture medium (2.0 mL) comprising 77% RPMI 1640 (Lanzhou Bailing Biotech Co., Ltd.; pH 7.5, HEPES-buffered), 20% heat-inactivated fetal bovine serum (Lanzhou Minhai Bio-Engineering Co., Ltd.), and 3% penicillin-streptomycin (100×; 10,000 U/mL penicillin, 10,000 μg/mL streptomycin; New Cell & Molecular Biotech Co., Ltd., China). Incubation was performed at 37°C under 5% CO2. Test compounds were dissolved in DMSO as 0.1 M stock solutions; 2.0 μL aliquots were added to worm-containing media (final concentration: 100 μM in 0.1% DMSO). Negative controls received equivalent volumes of vehicle (0.1% DMSO in RPMI 1640). Parasite viability (motor activity, tegumental integrity, survival) was assessed every 12 h for 72 h using an Olympus CKX53 inverted microscope (n ≥ 3 independent replicates).

[1] = 24 h, read-out: Mortality (%) 24 h, 100 μM, 24 h, adult worms in vitro
[2] = 36 h, read-out: Mortality (%) 36 h, 100 μM, 36 h, adult worms in vitro
[3] = 48 h, read-out: Mortality (%) 48 h, 100 μM, 48 h, adult worms in vitro
[4] = 72 h, read-out: Mortality (%) 72 h, 100 μM, 72 h, adult worms in vitro

| Structure (SMILES) | mortality at 100 µM [1] | mortality at 100 µM [2] | mortality at 100 µM [3] | mortality at 100 µM [4] | Mortality (%) 72 h (72 h) |
| --- | --- | --- | --- | --- | --- |
| CN(NC(=O)c1ccc(F)c(C(F)(F)F)c1)c1ccc(Cl)c(Cl)c1 [Compound 25] | 0% | 0% | 30% | 80% |  |
| CN(NC(=O)c1ccc(C#N)cc1)c1ccc(Cl)c(Cl)c1 [Compound 20] | 0% | 0% | 60% | > 90% | 100% |
| CN(NC(=O)c1ccc(Cl)c(Cl)c1)c1cccc(Cl)c1 [Compound 8] | 0% | 0% | 40% | > 80% | 100% |
| CN(NC(=O)c1ccc(C(F)(F)F)cc1)c1ccc(Cl)c(Cl)c1 [Compound 19] | 0% | 0% | 35% | 80% |  |
| Cc1ccc(N(C)NC(=O)c2ccc(Br)cc2)cc1 [Compound 26] | 0% | 0% | 10% | 10% |  |
| CN(NC(=O)c1ccc(Br)cc1)c1ccc(F)cc1 [Compound 28] | 0% | 0% | 0% | 0% |  |
| CN(NC(=O)c1cccc(Cl)c1)c1ccc(Cl)c(Cl)c1 [Compound 23] | 0% | 5% | 40% | > 90% | 95% |
| CN(NC(=O)c1ccc(Br)cc1)c1ccc(Br)cc1 [Compound 30] | 0% | 10% | 65% | 100% |  |
| CN(NC(=O)c1ccc(Br)cc1)c1ccc(C#N)cc1 [Compound 32] | 0% | 0% | 0% | 0% |  |
| CN(NC(=O)c1ccc(Cl)c(Cl)c1)c1ccc(Cl)cc1 [Compound 4] | 0% | 0% | 0% | 10% |  |
| CN(NC(=O)c1ccc(Br)cc1)c1ccc(C(F)(F)F)cc1 [Compound 31] | 0% | 10% | 55% | 75% |  |
| CN(NC(=O)c1ccc(Br)cc1)c1cc(Cl)cc(Cl)c1 [Compound 40] | 0% | 20% | 70% | 100% |  |
| CN(NC(=O)c1ccc(Cl)c(Cl)c1)c1ccc(F)cc1 [Compound 3] | 0% | 0% | 45% | > 80% | 85% |
| CN(NC(=O)c1ccc(Cl)c(Cl)c1)c1ccc(Cl)c(C(F)(F)F)c1 [Compound 14] | 15% | 25% | 55% | > 80% | 95% |
| CN(NC(=O)c1ccc(Cl)cc1)c1ccc(Cl)c(Cl)c1 [Compound 17] | 0% | 5% | 25% | 70% |  |
| Cc1ccccc1N(C)NC(=O)c1ccc(Br)cc1 [Compound 37] | 0% | 0% | 0% | 0% |  |
| CN(NC(=O)c1ccc(Cl)c(Cl)c1)c1ccc(Cl)c(Cl)c1 [Compound 13] | 0% | 15% | 50% | > 80% | 100% |
| CN(NC(=O)c1ccc(Cl)c(Cl)c1)c1ccccc1F [Compound 11] | 0% | 0% | 0% | 0% |  |
| Cc1cccc(N(C)NC(=O)c2ccc(Cl)c(Cl)c2)c1 [Compound 7] | 0% | 0% | 0% | 0% |  |
